Measured values: patent US20230181519A1, “Compositions And Methods For Treating Nicotine-Related Disorders And Symptoms Using Dihydromyricetin” (priority 2021, published 2023)
Entries after “also recorded” stand apart in the source; their conditions may differ.

Assays:
[1] = tested on: NIC-induced conditioned-place preference; assay: NIC-induced conditioned-place preference (CPP); format: in vivo
Protocol: In this example, the effects of DHM on NIC-induced conditioned-place preference (“CCP”) were measured.
Part A is the CPP performance protocol.

α4β2-nAChRs = target: T1, α4β2-nAChRs (Homo sapiens, UniProt P17787+P43681); assay: ACh-induced whole-cell currents of transfected α4β2-nAChRs in SH-EP1 cells; format: cell-based; conditions: DHM co-applied at different concentrations, SH-EP1 cells (FIG. 1)
T1 construct: expressed in transfected cells; host or cells: human SH-EP1 cells
T1 sequence (P43681 29-627 limits assumed): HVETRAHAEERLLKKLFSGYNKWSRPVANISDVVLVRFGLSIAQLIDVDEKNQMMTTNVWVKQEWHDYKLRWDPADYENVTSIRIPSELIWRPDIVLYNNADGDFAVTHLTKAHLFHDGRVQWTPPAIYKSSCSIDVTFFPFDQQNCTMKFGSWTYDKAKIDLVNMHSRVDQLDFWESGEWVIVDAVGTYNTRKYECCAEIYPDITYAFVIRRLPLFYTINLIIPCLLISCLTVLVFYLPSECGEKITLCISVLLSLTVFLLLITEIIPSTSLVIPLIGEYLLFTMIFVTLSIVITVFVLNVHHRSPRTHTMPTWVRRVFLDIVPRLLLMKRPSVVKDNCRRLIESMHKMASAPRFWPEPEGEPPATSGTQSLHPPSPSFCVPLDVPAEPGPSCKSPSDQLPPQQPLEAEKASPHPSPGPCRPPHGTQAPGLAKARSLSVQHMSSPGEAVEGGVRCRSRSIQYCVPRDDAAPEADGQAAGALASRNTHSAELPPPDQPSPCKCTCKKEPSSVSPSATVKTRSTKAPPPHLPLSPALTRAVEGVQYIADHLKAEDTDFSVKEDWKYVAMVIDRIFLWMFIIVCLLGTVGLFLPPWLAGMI
T1 sequence (P17787 26-502): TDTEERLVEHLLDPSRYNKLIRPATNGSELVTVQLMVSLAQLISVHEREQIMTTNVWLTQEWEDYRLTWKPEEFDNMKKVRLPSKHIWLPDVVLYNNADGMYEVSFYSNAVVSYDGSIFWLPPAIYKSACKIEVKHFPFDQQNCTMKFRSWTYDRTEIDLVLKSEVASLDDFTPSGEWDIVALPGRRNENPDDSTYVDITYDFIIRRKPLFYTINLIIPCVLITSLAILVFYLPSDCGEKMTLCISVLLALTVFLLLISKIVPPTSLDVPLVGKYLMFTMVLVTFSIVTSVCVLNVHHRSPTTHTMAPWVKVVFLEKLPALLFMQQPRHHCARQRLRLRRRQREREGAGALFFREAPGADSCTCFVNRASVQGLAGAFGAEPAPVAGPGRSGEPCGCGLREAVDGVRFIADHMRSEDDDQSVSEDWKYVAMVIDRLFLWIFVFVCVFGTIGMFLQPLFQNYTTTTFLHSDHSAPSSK
Protocol: In this example, the effects of DHM on transfected α4β2-nAChRs in human SH-EP1 cells (a model system to study human acetylcholine (“ACh”) receptors) were measured. Traces of ACh-induced whole-cell currents co-applied with different concentrations of DHM were created and examined.

VTA DA neurons [2] = assay: VTA dopamine neuronal firing in VTA slices (cell-attached recording); format: cell-based, mouse
Protocol: In this example, the effects of DHM on mouse ventral tegmental area (“VTA”) dopamine (“DPA”) neuronal firing in slices were measured.

VTA DA neurons [3] = assay: VTA DA neuronal firing in anesthetized mice (in vivo recording); conditions: i.v.
Source text: Part C is after in vivo recording. The recording site was dyed using blue-sky dye, and confirmed by cutting brain sections that contained VTA.

C57BL/J mice = assay: NIC-induced behavioral sensitization (local motor activity); format: in vivo
Protocol: In this example, the effects of DHM on NIC-induced behavioral sensitization in mice were measured.
C57BL/J mice were repetitively treated with NIC (0.5 mg/kg, i.p.), and the local motor activities were measured.

[4] = NIC 0.5 mg/kg, anesthetized mice (FIG. 3 B)
[5] = NIC 0.5 mg/kg, i.p., repetitive, C57BL/J mice (FIG. 6)

a4b2-nAChR-mediated whole-cell currents (α4β2-nAChRs) | SMILES | NIC-induced CPP, overall ([1]; FIG. 5) | NIC-induced CPP after withdrawal 5 days of NIC (day 19) ([1]; FIG. 5 B, C) | NIC-induced CPP at test day (day 13) ([1]; FIG. 5 C) | NIC-induced enhancement of AP firing rate, effect of DHM (VTA DA neurons [2]; VTA slices (FIG. 2 C, D)) | DA neuron firing rate, effect of DHM itself (VTA DA neurons [2]; VTA slices, different concentrations of DHM (FIG. 2 D)) | DA neuronal firing rate, effect of DHM (VTA DA neurons [3]; DHM 1 and 10 mg/kg, anesthetized mice (FIG. 4)) | NIC-induced AP firing increase, effect of DHM (VTA DA neurons [3]; DHM 1 and 10 mg/kg, anesthetized mice (FIG. 4 D)) | NIC-induced behavioral sensitization (local motor activity), effect of DHM (C57BL/J mice; NIC group vs NIC+DHM group (FIG. 7)) | AP firing rate of DA neurons, effect of bath-applied nicotine (VTA DA neurons [2]; VTA slices, cell-attached recording (FIG. 2 A, B)) | DA neuronal firing, time-frequency relationship after NIC (VTA DA neurons [3]; NIC 0.5 mg/kg, anesthetized mice (FIG. 3 A)) | AP firing rate after systemic injection of NIC (VTA DA neurons [3]; [4]) | bursting firing after systemic injection of NIC (VTA DA neurons [3]; [4]) | slow oscillations (SO) after systemic injection of NIC (VTA DA neurons [3]; [4]) | motor activity (total move distance) with repetitive injections of NIC (C57BL/J mice; [5]) | motor activity after withdrawal at 5 and 10 days (C57BL/J mice; [5])
inhibited | O=C1c2c(O)cc(O)cc2O[C@H](c2cc(O)c(O)c(O)c2)[C@H]1O [DHM, dihydromyricetin] | significantly reduces; also recorded: inhibits | abolished | abolished | abolished; also recorded: prevented | reduced DA firing | reduced | abolished | significantly reduced; also recorded: inhibits |  |  |  |  |  |  | 
 | CN1CCCC1c1cccnc1 (stereo not shown) [NIC, nicotine] |  |  |  |  |  |  |  |  | enhancement of AP firing rate | an initial reduction following by a long-lasting increase | enhanced | enhanced | reduction | increased | still maintained at a high level
